Measurements taken from patent US10941157B2, “Pesticidal compositions and uses thereof” (Gilead Apollo, LLC, priority 2015, dated 2021).
In brackets after ≈: the same amount, converted by molar mass. Like-named read-outs stand apart in the source and are kept apart here.

Assays:
Assay type in all cases: cell-based
[1] = tested on: Fusarium moniliforme (Fm); assay: In vitro pathogen growth inhibition assay, Fm; details: Fusarium verticillioides
Summary of the method: (§1)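 Spores in 17% V8 liquid medium, or 1.5 mm Rs mycelial plugs in ¼ PDB, incubated with compound; final concentration checked by OD600 for precipitation. OD readings at 24 and 48 h, blank-subtracted, plus visual ratings; value is concentration giving ≥90% growth inhibition.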

Diplodia maydis (Dm) = assay: In vitro pathogen growth inhibition assay, Dm; details: Stenocarpella maydis, 48 h
Summary of the method: (§2)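 Value reported is the compound concentration reaching ≥90% growth inhibition, from OD readings at 24 and 48 h after blank subtraction, confirmed visually. Inoculum was spores diluted in 17% V8 medium, except Rs, using 1.5 mm mycelial plugs in ¼ PDB; actual compound concentration corrected via OD600.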

[2] = tested on: Saccharomyces cerevisiae (Sc); assay: Yeast growth inhibition assay
Protocol: Both tables list the concentration of each compound that was sufficient to ≥90% inhibition of growth for each of the fungal pathogens listed above. In addition, some of compounds were tested in a yeast growth inhibition assay for Saccharomyces cerevisiae (Sc). Table 2 lists the concentration of the tested compound that was sufficient to ≥75% inhibition of Saccharomyces cerevisiae (Sc).

[3] = tested on: Fusarium virguliforme (Fv); assay: In vitro pathogen growth inhibition assay, Fv
Summary of the method: as §2

Rhizoctonia solani (Rs) = assay: In vitro pathogen growth inhibition assay, Rs (mycelial plugs); details: Rhizoctonia solani, 48 h, mycelial plugs
Summary of the method: as §2

[4] = tested on: Collectotrichum graminicola (Cg); assay: In vitro pathogen growth inhibition assay, Cg; details: 48 h
Summary of the method: as §1

Botrtyis cinerea (Bc) = assay: In vitro pathogen growth inhibition assay, Bc; details: 48 h
Summary of the method: as §1

[5] = tested on: Phytophthora capsici (Pc); assay: In vitro pathogen growth inhibition assay, Pc; details: 48 h
Summary of the method: as §2

Septoria tritici (St) = assay: In vitro pathogen growth inhibition assay, St; details: Zymoseptoria tritici, 48 h
Summary of the method: as §1

[6] = ≥90% growth inhibition, 48 hours, vs 2% DMSO control, read-out: Compound Concentration (ppm) sufficient for ≥90% inhibition of Fm
[7] = ≥90% growth inhibition, 48 hours, vs 2% DMSO control, read-out: Compound Concentration (ppm) sufficient for ≥90% inhibition of Dm
[8] = ≥90% growth inhibition, 48 hours, vs 2% DMSO control, read-out: Compound Concentration (ppm) sufficient for ≥90% inhibition of Fv
[9] = ≥90% growth inhibition, 48 hours, vs 2% DMSO control, read-out: Compound Concentration (ppm) sufficient for ≥90% inhibition of Rs
[10] = ≥90% growth inhibition, 48 hours, vs 2% DMSO control, read-out: Compound Concentration (ppm) sufficient for ≥90% inhibition of Cg
[11] = ≥90% growth inhibition, 48 hours, vs 2% DMSO control, read-out: Compound Concentration (ppm) sufficient for ≥90% inhibition of Bc
[12] = ≥90% growth inhibition, 48 hours, vs 2% DMSO control, read-out: Compound Concentration (ppm) sufficient for ≥90% inhibition of Pc
[13] = ≥90% growth inhibition, 48 hours, vs 2% DMSO control, read-out: Compound Concentration (ppm) sufficient for ≥90% inhibition of St

IC90 ([1]; ≥90% inhibition, 48 hours vs 2% DMSO control, read-out: Compound Concentration (ppm) sufficient for ≥90% inhibition of growth, Fm) | IC90 (Diplodia maydis (Dm); ≥90% inhibition, 48 hours vs 2% DMSO control, read-out: Compound Concentration (ppm) sufficient for ≥90% inhibition of growth, Dm) | IC90 ([3]; ≥90% inhibition, 48 hours vs 2% DMSO control, read-out: Compound Concentration (ppm) sufficient for ≥90% inhibition of growth, Fv) | IC90 (Rhizoctonia solani (Rs); ≥90% inhibition, 48 hours vs 2% DMSO control, read-out: Compound Concentration (ppm) sufficient for ≥90% inhibition of growth, Rs) | IC90 ([4]; ≥90% inhibition, 48 hours vs 2% DMSO control, read-out: Compound Concentration (ppm) sufficient for ≥90% inhibition of growth, Cg) | IC90 (Botrtyis cinerea (Bc); ≥90% inhibition, 48 hours vs 2% DMSO control, read-out: Compound Concentration (ppm) sufficient for ≥90% inhibition of growth, Bc) | IC90 ([5]; ≥90% inhibition, 48 hours vs 2% DMSO control, read-out: Compound Concentration (ppm) sufficient for ≥90% inhibition of growth, Pc) | IC90 (Septoria tritici (St); ≥90% inhibition, 48 hours vs 2% DMSO control, read-out: Compound Concentration (ppm) sufficient for ≥90% inhibition of growth, St) | IC90 [1, 6] | IC90 (Diplodia maydis (Dm); [7]) | IC90 [3, 8] | IC90 (Rhizoctonia solani (Rs); [9]) | IC90 [4, 10] | IC90 (Botrtyis cinerea (Bc); [11]) | IC90 [5, 12] | IC90 (Septoria tritici (St); [13]) | Structure (SMILES) | IC75 ([2]; Saccharomyces cerevisiae, ≥75% inhibition, read-out: Compound Concentration (ppm) sufficient for ≥75% inhibition, Sc) | Compound Concentration (ppm) sufficient for ≥75% inhibition of Sc [2]
2 µg/mL (≈ 3.76 µM) | 10 µg/mL (≈ 18.8 µM) | 10 µg/mL (≈ 18.8 µM) | 50 µg/mL (≈ 94.1 µM) | 50 µg/mL (≈ 94.1 µM) | 2 µg/mL (≈ 3.76 µM) | > 50 µg/mL | > 50 µg/mL | – | – | – | – | – | – | – | – | CCOC(=O)c1sc2c(c1C)c(=O)n(C(C)(C)C(N)=O)c(=O)n2C[C@H](OC(C)C)c1ccccc1OC [Compound I-155] | 33.3 µg/mL (≈ 62.6 µM) | –
– | – | – | – | – | – | – | – | ≥ 0.4 µg/mL | 2 µg/mL (≈ 3.12 µM) | ≥ 0.4 µg/mL | 2 µg/mL (≈ 3.12 µM) | 0.4 µg/mL (≈ 0.623 µM) | 0.4 µg/mL (≈ 0.623 µM) | > 50 µg/mL | ≥ 10 µg/mL | CCOC(=O)c1sc2c(c1C)c(=O)n(C(C)(C)C(=O)N1CCCCC1)c(=O)n2C[C@H](OC1CCOCC1)c1ccccc1OC [Compound I-168] | – | 1.2 ppm
– | – | – | – | – | – | – | – | ≥ 0.4 µg/mL | ≥ 10 µg/mL | 50 µg/mL (≈ 83.8 µM) | > 50 µg/mL | 50 µg/mL (≈ 83.8 µM) | 10 µg/mL (≈ 16.8 µM) | > 50 µg/mL | > 50 µg/mL | CCNC(=O)C(C)(C)n1c(=O)c2c(C)c(-c3ncco3)sc2n(C[C@H](OC2CCOCC2)c2ccccc2OC)c1=O [Compound I-169] | – | 11.0 ppm
